In US9458153B2, “Dihydroquinolizinones for the treatment and prophylaxis of hepatitis B virus infection” (Hoffmann-La Roche Inc., priority 2014, dated 2016):

Test system: HBsAg
Test: HBsAg assay (chemiluminescence immunoassay of secreted HBsAg in HepG2.2.15 culture supernatant)
Type: cell-based, HBV
Settings: HepG2.2.15 cells, CLIA kit
Experimental: HepG2.2.15 cells (Acs et al. Proc Natl Acad Sci USA, 84, (1987), 4641-4), a constitutively HBV-expressing cell line were cultured in DMEM+Glutamax-I medium (Invitrogen, Carlsbad, Calif., USA), supplemented with 10% fetal bovine serum (Invitrogen) and G418 (Invitrogen) at a final concentration of 200 mg/L and maintained in 5% CO2 at 37° C.
HepG2.2.15 cells were seeded in duplicate into white, 96-well plates at 1.5×10^4 cells/well. The cells were treated with a three-fold serial dilution series of the compounds in DMSO. The final DMSO concentration in all wells was 1% and DMSO was used as no drug control.
The HBsAg chemiluminescence immunoassay (CLIA) kit (Autobio Diagnostics Co., Zhengzhou, China, Catalog number: CL0310-2) was used to measure the levels of secreted HBV antigens semi-quantitatively. For the detection 50 μL/well culture supernatant was used and HBsAg was quantified using HBsAg chemiluminescence immunoassay (CLIA) kit (Autobio Diagnostics Co., Zhengzhou, China, Catalog number: CL0310-2), 50 μL of the supernatant was transferred to the CLIA assay plate and 50 μL of enzyme conjugate reagent was added into each well. The plates were sealed and gently agitated for 1 hour at room temperature. The supernatant-enzyme-mixture was discarded and wells were washed 6 times with 300 μL of PBS. The residual liquid was removed by plating the CLIA plate right side down on absorbent tissue paper. 25 μL of substrates A and B were added to each well. Luminance was measured using a luminometer (Mithras LB 940 Multimode Microplate Reader) after 10 minutes incubation. Dose-response curves were generated and the IC50 value was extrapolated by using the E-WorkBook Suite (ID Business Solutions Ltd., Guildford, UK).
The compounds of the present invention were tested for their capacity to inhibit HBsAg as described herein.

[1] = HBsAg secretion reduced by 50% vs no drug control
[2] = Hepatitis B virus, HepG2.2.15, HBsAg secretion reduced by 50% vs no drug control

`COCCCOc1cc2c(c(F)c1F)-c1cc(=O)c(C(=O)O)cn1C(C(C)C)C2` (single isomer, unassigned; (+)) [Example 214, (+)-10,11-difluoro-6-isopropyl-9-(3-methoxypropoxy)-2-oxo-6,7-dihydrobenzo[a]quinolizine-3-carboxylic acid] showed an IC50 [1] of 0.015 µM.
`COCCCOc1cc2c(cc1Cl)-c1cc(=O)c(C(=O)O)cn1C(C(C)(C)C)C2` (centres unmarked) [Example 202, 6-tert-butyl-10-chloro-9-(3-methoxypropoxy)-2-oxo-6,7-dihydrobenzo[a]quinolizine-3-carboxylic acid] was tested, and the IC50 [1] was 0.002 µM.
Work on `COc1cc2c(cc1OCC(F)F)CC(C(C)C)n1cc(C(=O)O)c(=O)cc1-2` (single isomer, unassigned; (-)) [Example 143, (−)-9-(2,2-difluoroethoxy)-6-isopropyl-10-methoxy-2-oxo-6,7-dihydrobenzo[a]quinolizine-3-carboxylic acid] yielded an IC50 [1] of 0.19 µM.
`COCCOc1cc2c(cc1Cl)-c1cc(=O)c(C(=O)O)cn1C(CC(C)C)C2` (centres unmarked) [Example 104, 10-chloro-6-isobutyl-9-(2-methoxyethoxy)-2-oxo-6,7-dihydrobenzo[a]quinolizine-3-carboxylic acid] gave an IC50 [1] of 0.018 µM.
Compound `COc1cc2c(cc1OC)-c1cc(=O)c(C(=O)O)cn1C(C1CC1)C2` (centres unmarked) [Example 97, 6-cyclopropyl-9,10-dimethoxy-2-oxo-6,7-dihydrobenzo[a]quinolizine-3-carboxylic acid] has an IC50 [2] of 0.07 µM.
Work on `CCC1Cc2cc(C#N)c(OC)cc2-c2cc(=O)c(C(=O)O)cn21` (centres unmarked) [Example 93, 9-cyano-6-ethyl-10-methoxy-2-oxo-6,7-dihydrobenzo[a]quinolizine-3-carboxylic acid] yielded an IC50 [2] of 0.19 µM.
Work on `COCCCOc1cc2c(c(F)c1F)-c1cc(=O)c(C(=O)O)cn1C(C(C)C)C2` (centres unmarked) [Example 213, 10,11-difluoro-6-isopropyl-9-(3-methoxypropoxy)-2-oxo-6,7-dihydrobenzo[a]quinolizine-3-carboxylic acid] yielded an IC50 [1] of 0.024 µM.
Compound `CCOc1ccc(C#N)c2c1-c1cc(=O)c(C(=O)O)cn1C(CC)C2` (centres unmarked) [Example 95, 8-cyano-11-ethoxy-6-ethyl-2-oxo-6,7-dihydrobenzo[a]quinolizine-3-carboxylic acid] has an IC50 [2] of 7.83 µM.
Work on `COc1cc2c(cc1Cl)-c1cc(=O)c(C(=O)O)cn1C(C)C2` (centres unmarked) [Example 65, 10-chloro-9-methoxy-6-methyl-2-oxo-6,7-dihydrobenzo[a]quinolizine-3-carboxylic acid] yielded an IC50 [2] of 0.32 µM.
Work on `COc1cc2c(cc1OCCCCCNS(C)(=O)=O)CC(C(C)(C)C)n1cc(C(=O)O)c(=O)cc1-2` (centres unmarked) [Example 176, 6-tert-butyl-9-[5-(methanesulfonamido)pentoxy]-10-methoxy-2-oxo-6,7-dihydrobenzo[a]quinolizine-3-carboxylic acid] yielded an IC50 [2] of 0.003 µM.
`COc1cc2c(cc1OCC(C)(C)CO)CC(C(C)(C)C)n1cc(C(=O)O)c(=O)cc1-2` (centres unmarked) [Example 149, 6-tert-butyl-9-(3-hydroxy-2,2-dimethyl-propoxy)-10-methoxy-2-oxo-6,7-dihydrobenzo[a]quinolizine-3-carboxylic acid] gave an IC50 [1] of 0.002 µM.
With `COCCOc1cc2c(cc1F)-c1cc(=O)c(C(=O)O)cn1C(C(C)C)C2` (centres unmarked) [Example 110, 10-fluoro-6-isopropyl-9-(2-methoxyethoxy)-2-oxo-6,7-dihydrobenzo[a]quinolizine-3-carboxylic acid] the IC50 [2] was 0.052 µM.
For `CCC1Cc2cc(OCCc3ccccc3)c(OC)cc2-c2cc(=O)c(C(=O)O)cn21` (centres unmarked) [Example 14, 6-ethyl-10-methoxy-2-oxo-9-(2-phenylethoxy)-6,7-dihydrobenzo[a]quinolizine-3-carboxylic acid], the IC50 [2] was 0.014 µM.
Work on `COc1cc2c(cc1OCCCCCCCCN)CC(C(C)(C)C)n1cc(C(=O)O)c(=O)cc1-2` (centres unmarked) [Example 166, 9-(8-aminooctoxy)-6-tert-butyl-10-methoxy-2-oxo-6,7-dihydrobenzo[a]quinolizine-3-carboxylic acid] yielded an IC50 [1] of 0.006 µM.
Work on `CCC1Cc2cc(OCCCOC)c(OC)cc2-c2cc(=O)c(C(=O)O)cn21` (single isomer, unassigned; (-)) [Example 41, (−)-6-ethyl-10-methoxy-9-(3-methoxypropoxy)-2-oxo-6,7-dihydrobenzo[a]quinolizine-3-carboxylic acid] yielded an IC50 [1] of 5.77 µM.
With `CCC1Cc2cc(OCC(C)(C)CO)c(OC)cc2-c2cc(=O)c(C(=O)O)cn21` (centres unmarked) [Example 22, 6-ethyl-9-(3-hydroxy-2,2-dimethyl-propoxy)-10-methoxy-2-oxo-6,7-dihydrobenzo[a]quinolizine-3-carboxylic acid] the IC50 [1] was 0.039 µM.
For `COCCCOc1cc2c(cc1OC)-c1cc(=O)c(C(=O)O)cn1C(C(C)(C)C)C2` (single isomer, unassigned; (+)) [Example 132, (+)-6-tert-butyl-10-methoxy-9-(3-methoxypropoxy)-2-oxo-6,7-dihydrobenzo[a]quinolizine-3-carboxylic acid], the IC50 [1] was 0.001 µM.
For `COCCOc1cc(Cl)c2c(c1)CC(C(C)C)n1cc(C(=O)O)c(=O)cc1-2` (centres unmarked) [Example 111, 11-chloro-6-isopropyl-9-(2-methoxyethoxy)-2-oxo-6,7-dihydrobenzo[a]quinolizine-3-carboxylic acid], the IC50 [2] was 0.04 µM.
Work on `CCc1cc2c(cc1OC)CC(CC)n1cc(C(=O)O)c(=O)cc1-2` (centres unmarked) [Example 88, 6,10-diethyl-9-methoxy-2-oxo-6,7-dihydrobenzo[a]quinolizine-3-carboxylic acid] yielded an IC50 [2] of 0.02 µM.
With `COc1cc2c(cc1OC)-c1cc(=O)c(C(=O)O)cn1C(C)C2` (centres unmarked) [Example 66, 9,10-dimethoxy-6-methyl-2-oxo-6,7-dihydrobenzo[a]quinolizine-3-carboxylic acid] the IC50 [1] was 0.43 µM.
`CC[C@@H]1[C@H](C)c2cc(OCCOC)c(Cl)cc2-c2cc(=O)c(C(=O)O)cn21` (relative stereo) [Example 212B, (6R*,7R*)-10-chloro-6-ethyl-9-(2-methoxyethoxy)-7-methyl-2-oxo-6,7-dihydrobenzo[a]quinolizine-3-carboxylic acid] was tested, and the IC50 [2] was 0.029 µM.
`CCC1Cc2cc(OCCN3CCOCC3)c(OC)cc2-c2cc(=O)c(C(=O)O)cn21` (centres unmarked) [Example 20, 6-ethyl-10-methoxy-9-(2-morpholinoethoxy)-2-oxo-6,7-dihydrobenzo[a]quinolizine-3-carboxylic acid] was tested, and the IC50 [2] was 0.22 µM.
Compound `COc1cc2c(cc1OCCCCCCNC(=O)OC(C)(C)C)CC(C(C)(C)C)n1cc(C(=O)O)c(=O)cc1-2` (single isomer, unassigned; (+)) [Example 162, (+)-9-[6-(tert-butoxycarbonylamino)hexoxy]-6-tert-butyl-10-methoxy-2-oxo-6,7-dihydrobenzo[a]quinolizine-3-carboxylic acid] has an IC50 [1] of 0.002 µM.
Compound `CCCOc1cc2c(cc1OC)CC(C)n1cc(C(=O)O)c(=O)cc1-2` (centres unmarked) [Example 87, 9-methoxy-6-methyl-2-oxo-10-propoxy-6,7-dihydrobenzo[a]quinolizine-3-carboxylic acid] has an IC50 [2] of 1.55 µM.
`COCCCOc1cc2c(cc1OC)-c1cc(=O)c(C(=O)O)cn1C(C(C)(C)C)C2` (centres unmarked) [Example 131, 6-tert-butyl-10-methoxy-9-(3-methoxypropoxy)-2-oxo-6,7-dihydrobenzo[a]quinolizine-3-carboxylic acid] gave an IC50 [1] of 0.001 µM.
In the case of `COCCOc1cc2c(cc1Cl)-c1cc(=O)c(C(=O)O)cn1C(C(C)C)C2` (centres unmarked) [Example 107, 10-chloro-6-isopropyl-9-(2-methoxyethoxy)-2-oxo-6,7-dihydrobenzo[a]quinolizine-3-carboxylic acid], the IC50 [1] is reported as 0.012 µM.
